Tested on: A2780 cells
Assay: Deoxy-glucose uptake assay in A2780 cells (14C 2-deoxy-D-glucose transport)
Assay type: cell-based
Details: Homo sapiens, 20 min; inhibition of 14C 2-deoxy-D-glucose transport into A2780 cells; 20 min compound incubation; read-out: IC50
Procedure: 1. Deoxy-Glucose Uptake Assay in A2780 Cells:
For measurement of ^14C 2-deoxy-D-glucose transport into A2780 cells, cells were seeded in 96-well plates (Cytostar-T Plates Perkin Elmer, 70,000 cells/180 μl/well) in medium complete (RPMI1640+Glutamax (Life technologies #61870)) and grown for 48 hours. After 48 h, cells were washed once with 180 μL KRB (Krebs Ringer Bicarbonate) buffer, and stimulated in a dose dependent manner by adding 10 μL of test compound dilution 0-1.1 mM (11 times higher concentration than final) or 10 μL of 1.1 mM Cytochalasin B solution as negative control, to 90 μL KRB buffer and incubated for 20 minutes. After compound stimulation, the transport of ^14C 2-deoxy-D-glucose was started by adding of 50 μL 2-^14C[U] 2-deoxy-D-glucose solution (109.1 μM 2-deoxy-D-glucose cold and 33 μM 2-^14C[U] 2-deoxy-D-glucose 0.1 μCi/well) for 20 minutes. Transport was stopped by adding 50 μL/well 96 μM Cytochalasin B solution. Plates were measured in a 96-well Wallac Microbeta device. The cpm (counts per minute) values were used to determine the % inhibition values for the test compounds within each experiment. In a first step, the mean background value generated by Cytochalasin B (a potent glucose transporter inhibitor) treated cells, was subtracted from the mean values of the treated cells. All mean values were obtained from triplicates. For %-Inhibition results, the mean value of the untreated cells (just KRB) was set as 100%. All other mean values were calculated to this relation. IC50 were obtained by regression analysis of dose response curve with 7 or 14 concentrations, respectively, for each compound.

Structure (SMILES)	IC50 [µM]
COC(=O)c1cc(COc2c(Cl)cc(C(=O)N[C@H]3[C@@H](OC)O[C@H](CO)[C@@H](O)[C@@H]3O)c(C)c2Cl)ccc1Cl [Example 257]	7.2
CO[C@H]1O[C@H](CO)[C@@H](O)[C@H](O)[C@H]1OC(=O)c1cc(Cl)c(OCc2cccc(CO)n2)c(Cl)c1C [Example 259]	12.2
CO[C@H]1O[C@H](CO)[C@@H](O)[C@H](O)[C@H]1NC(=O)c1cc(Cl)c(OCc2ccc3c(c2)nnn3C)c(Cl)c1C [Example 260]	75.2
CO[C@H]1O[C@H](CO)[C@@H](O)[C@H](O)[C@H]1OC(=O)c1cc(Cl)c(OCc2ccc3c(c2)nnn3C)c(Cl)c1C [Example 261]	0.5
COC(=O)c1cc(COc2c(Cl)cc(C(=O)O[C@H]3[C@@H](OC)O[C@H](CO)[C@@H](O)[C@@H]3O)c(C)c2Cl)ccc1Cl [Example 262]	1
CO[C@H]1O[C@H](CO)[C@@H](O)[C@H](O)[C@H]1OC(=O)c1cc(Cl)c(OCc2cccc(C(=O)OC(C)(C)C)c2)c(Cl)c1C [Example 269]	13.4
CCOC(=O)c1cccc(COc2c(Cl)cc(C(=O)N[C@H]3[C@@H](OC)O[C@H](CO)[C@@H](O)[C@@H]3O)c(C)c2Cl)n1 [Example 270]	27.8
CCOC(=O)c1cccc(COc2c(Cl)cc(C(=O)O[C@H]3[C@@H](OC)O[C@H](CO)[C@@H](O)[C@@H]3O)c(C)c2Cl)n1 [Example 271]	4.2
C#CCCC(=O)Nc1cc(COc2c(Cl)cc(C(=O)N[C@H]3[C@@H](OC)O[C@H](CO)[C@@H](O)[C@@H]3O)c(C)c2Cl)cnc1OC [Example 274]	17.9
C#CCCCn1c(COc2c(Cl)cc(C(=O)O[C@@H]3[C@@H](O)[C@@H](OC)O[C@H](CO)[C@H]3O)c(C)c2Cl)nc2ccccc21 [Example 275]	0.1
COc1cc(C(=O)O[C@H]2[C@@H](OC)O[C@H](CO)[C@@H](O)[C@@H]2O)cc(Cl)c1OCc1cccc(OCC(=O)OC(C)(C)C)c1 [Example 276]	14.4
CO[C@H]1O[C@H](CO)[C@@H](O)[C@H](O)[C@H]1OC(=O)c1cc(Cl)c(OCc2cccc(CNC(=O)[C@H](CC(C)C)NC(=O)OC(C)(C)C)c2)c(Cl)c1C [Example 278]	1.6
CO[C@H]1O[C@H](CO)[C@@H](O)[C@H](O)[C@H]1OC(=O)c1cc(Cl)c(OCc2cccc(CNC(=O)[C@H](CC(C)C)N(C)C(=O)OC(C)(C)C)c2)c(Cl)c1C [Example 279]	3.4
C#CCCCn1c(COc2c(Cl)cc(C(=O)N[C@H]3[C@@H](OC)O[C@H](CO)[C@@H](O)[C@@H]3O)c(C)c2Cl)cc2ccccc21 [Example 280]	5.9
CCOC(=O)c1nnsc1COc1c(Cl)cc(C(=O)O[C@H]2[C@@H](OC)O[C@H](CO)[C@@H](O)[C@@H]2O)c(C)c1Cl [Example 282]	0.3
CCOC(=O)c1nnsc1COc1c(Cl)cc(C(=O)N[C@H]2[C@@H](OC)O[C@H](CO)[C@@H](O)[C@@H]2O)c(C)c1Cl [Example 283]	6.7
COC(=O)c1ccc(COc2c(Cl)cc(C(=O)N[C@H]3[C@@H](OC)O[C@H](CO)[C@@H](O)[C@@H]3O)c(C)c2Cl)nc1 [Example 284]	14.2
CO[C@H]1O[C@H](CO)[C@@H](O)[C@H](O)[C@H]1OC(=O)c1cc(Cl)c(OCc2cccc(CNC(=O)[C@@H](N)CC(C)C)c2)c(Cl)c1C [Example 285]	23.2
CN[C@@H](CC(C)C)C(=O)NCc1cccc(COc2c(Cl)cc(C(=O)O[C@H]3[C@@H](OC)O[C@H](CO)[C@@H](O)[C@@H]3O)c(C)c2Cl)c1 [Example 286]	4.8
CO[C@H]1O[C@H](CO)[C@@H](O)[C@H](O)[C@H]1NC(=O)c1cc(Cl)c(OCc2ccc(C(=O)OC(C)(C)C)cc2)c(Cl)c1C [Example 296]	7.6
CO[C@H]1O[C@H](CO)[C@@H](O)[C@H](O)[C@H]1NC(=O)c1cc(Cl)c(OCc2ccccc2)cc1C [Example 297]	2.2
COc1c(C(=O)O[C@H]2[C@@H](OC)O[C@H](CO)[C@@H](O)[C@@H]2O)ccc(OCc2ccccc2)c1Cl [Example 298]	27.2
COC(=O)/C=C/c1ccc(COc2c(Cl)cc(C(=O)O[C@H]3[C@@H](OC)O[C@H](CO)[C@@H](O)[C@@H]3O)cc2OC)cc1 [Example 299]	45.8
CO[C@H]1O[C@H](CO)[C@@H](O)[C@H](O)[C@H]1OC(=O)c1cc(Cl)c(OCc2ccccc2)cc1C [Example 300]	6.9
CO[C@H]1O[C@H](CO)[C@@H](O)[C@H](O)[C@H]1NC(=O)c1cc(Cl)c(OCc2nc3ccccc3n2CCCCCC(=O)OC(C)(C)C)c(Cl)c1C [Example 301]	0.1

Structure (SMILES)	IC50 [µM]
COc1ncc(COc2c(Cl)cc(C(=O)N[C@H]3[C@@H](OC)O[C@H](CO)[C@@H](O)[C@@H]3O)c(C)c2Cl)cc1NCC(=O)OC(C)(C)C [Example 303]	0.2
CO[C@H]1O[C@H](CO)[C@@H](O)[C@H](O)[C@H]1NC(=O)c1cc(Cl)c(OCc2cccc(OCC(=O)OC(C)(C)C)c2)c(Cl)c1C [Example 307]	24
COC(=O)/C=C/c1ccc(COc2c(Cl)cc(C(=O)O[C@H]3[C@@H](OC)O[C@H](CO)[C@@H](O)[C@@H]3O)c(C)c2Cl)cc1 [Example 317]	14.7
COC(=O)CCCCCNC(=O)c1cccc(COc2c(Cl)cc(C(=O)N[C@H]3[C@@H](OC)O[C@H](CO)[C@@H](O)[C@@H]3O)c(C)c2Cl)c1 [Example 323]	28
COc1c(C(=O)N[C@H]2[C@H](OC)O[C@H](CO)[C@@H](O)[C@@H]2O)cc(Cl)c(OCc2ccccc2)c1Cl [Example 332]	31.3
COc1cc(C(=O)N[C@H]2[C@H](OC)O[C@H](CO)[C@@H](O)[C@@H]2O)cc(Cl)c1OCCc1ccccc1 [Example 333]	29.1
CO[C@@H]1O[C@H](CO)[C@@H](O)[C@H](O)[C@H]1NC(=O)c1cc(Cl)cc(OCc2ccccc2)c1 [Example 334]	30.6
CO[C@@H]1O[C@H](CO)[C@@H](O)[C@H](O)[C@H]1NC(=O)c1cc(Cl)c(OCc2ccccc2)c(Cl)c1C [Example 337]	36.4
CO[C@@H]1O[C@H](CO)[C@@H](O)[C@H](O)[C@H]1NC(=O)c1cc(Cl)c(OCc2ccccc2)c(Cl)c1 [Example 338]	32.2
CO[C@H]1O[C@H](CO)[C@@H](O)[C@H](O)[C@H]1OC(=O)c1cc(Cl)c(OCc2cccc(CNCCCC(=O)OC(C)(C)C)c2)c(Cl)c1C [Example 348]	31
COc1cc(OCc2ccccc2)c(Cl)cc1C(=O)O[C@@H]1[C@@H](O)[C@@H](OC)O[C@H](CO)[C@H]1O [Example 350]	18
COc1cc(OCc2cccc(CNC(=O)OC(C)(C)C)c2)c(Cl)cc1C(=O)N[C@H]1[C@@H](OC)O[C@H](CO)[C@@H](O)[C@@H]1O [Example 357]	0.9
COc1cc(OCc2ccccc2)ccc1C(=O)N[C@H]1[C@@H](OC)O[C@H](CO)[C@@H](O)[C@@H]1O [Example 358]	91.4
COc1cc(OCc2cccc(NC(=O)OC(C)(C)C)c2)c(Cl)cc1C(=O)N[C@H]1[C@@H](OC)O[C@H](CO)[C@@H](O)[C@@H]1O [Example 359]	0.4
COc1cc(OCc2cccc(CNC(=O)CCC(=O)OC(C)(C)C)c2)c(Cl)cc1C(=O)O[C@@H]1[C@@H](O)[C@@H](OC)O[C@H](CO)[C@H]1O [Example 363]	27.4
C#CCCCCCCCn1c(COc2c(Cl)cc(C(=O)N[C@H]3[C@@H](OC)O[C@H](CO)[C@@H](O)[C@@H]3O)c(C)c2Cl)nc2ccccc21 [Example 368]	1.1
COC(=O)[C@H](CCC(=O)NCc1cccc(COc2cc(OC)c(C(=O)O[C@H]3[C@@H](OC)O[C@H](CO)[C@@H](O)[C@@H]3O)cc2Cl)c1)NC(=O)OC(C)(C)C [Example 369]	11.2
COC(=O)[C@@H](N)CCCCNC(=O)CCCCCn1c(COc2c(Cl)cc(C(=O)N[C@H]3[C@@H](OC)O[C@H](CO)[C@@H](O)[C@@H]3O)c(C)c2Cl)nc2ccccc21 [Example 384]	44.2
COC(=O)[C@H](CCCCNC(=O)CCC(=O)NCc1cccc(COc2cc(OC)c(C(=O)O[C@H]3[C@@H](OC)O[C@H](CO)[C@@H](O)[C@@H]3O)cc2Cl)c1)NC(=O)OC(C)(C)C [Example 385]	22.3
COc1cc(OCc2ccc(OCC(=O)OC(C)(C)C)cc2)c(Cl)cc1C(=O)N[C@H]1[C@@H](OC)O[C@H](CO)[C@@H](O)[C@@H]1O [Example 387]	2.6
COC(=O)[C@H](CCCCNC(=O)CNc1cc(COc2c(Cl)cc(C(=O)N[C@H]3[C@@H](OC)O[C@H](CO)[C@@H](O)[C@@H]3O)c(C)c2Cl)cnc1OC)NC(=O)OC(C)(C)C [Example 388]	52.9
COc1cc(OCc2cccc(CNC(=O)CCC(=O)NCCCCCC(=O)OC(C)(C)C)c2)c(Cl)cc1C(=O)O[C@H]1[C@@H](OC)O[C@H](CO)[C@@H](O)[C@@H]1O [Example 390]	7.1
COC(=O)[C@H](CCCCNC(=O)CCCC(=O)NCc1cccc(COc2cc(OC)c(C(=O)O[C@H]3[C@@H](OC)O[C@H](CO)[C@@H](O)[C@@H]3O)cc2Cl)c1)NC(=O)OC(C)(C)C [Example 391]	34.3
COc1cc(OCc2cccc(OCCCCCC(=O)OC(C)(C)C)c2)c(Cl)cc1C(=O)N[C@H]1[C@@H](OC)O[C@H](CO)[C@@H](O)[C@@H]1O [Example 394]	4

From patent US20210170033A1, “NOVEL CONJUGATES OF A PHARMACEUTICAL AGENT AND A MOIETY CAPABLE OF BINDING TO A GLUCOSE SENSING PROTEIN” (SANOFI, priority 2017, published 2021)
